Experimental data taken from patent US11413348B2, “Low molecular weight cationic lipids for oligonucleotide delivery” (SIRNA THERAPEUTICS, INC., priority 2010, dated 2022).

How the values were obtained:
[1] = Determination of cationic lipid levels in monkey liver (LC/MS-MS); type: in vivo; conditions: monkeys, FIG. 7
Method: Liver tissue was weighed into 20-ml vials and homogenized in 9 v/w of water using a GenoGrinder 2000 (OPS Diagnostics, 1600 strokes/min, 5 min). A 50 μL aliquot of each tissue homogenate was mixed with 300 μL of extraction/protein precipitating solvent (50/50 acetonitrile/methanol containing 500 nM internal standard) and the plate was centrifuged to sediment precipitated protein. A volume of 200 μL of each supernatant was then transferred to separate wells of a 96-well plate and 10 μl samples were directly analyzed by LC/MS-MS.
Standards were prepared by spiking known amounts of a methanol stock solution of compound into untreated rat liver homogenate (9 vol water/weight liver). Aliquots (50 μL) each standard/liver homogenate was mixed with 300 μL of extraction/protein precipitating solvent (50/50 acetonitrile/methanol containing 500 nM internal standard) and the plate was centrifuged to sediment precipitated protein. A volume of 200 μL of each supernatant was transferred to separate wells of a 96-well plate and 10 μl of each standard was directly analyzed by LC/MS-MS.
Absolute quantification versus standards prepared and extracted from liver homogenate was performed using an Aria LX-2 HPLC system (Thermo Scientific) coupled to an API 4000 triple quadrupole mass spectrometer (Applied Biosystems). […]

[2] = system: β-catenin mRNA; assay: TRE-MET HCC mouse pharmacodynamic study (β-catenin mRNA by Taqman in liver and tumor); type: in vivo; conditions: intravenous, 72 hours; for knockdown of β-catenin mRNA in both liver and tumor tissues: FIGS. 8, 9, 12, 13
Method: The activity LNPs in delivering a β-catenin siRNA (siRNAβ-cat) to hepatocellular carcinoma was evaluated in a mouse hepatocellular carcinoma (HCC) model, named TRE-MET. TRE-MET mice are transgenic mice in an FVB/N genetic background where the human MET transgene is expressed under an hCMV promoter with hepatamerized upstream tet-operators. When TRE-MET mice are crossed with the LAP-tTA line, the double transgenic (TRE-MET/LAP-tTA) mice express MET in a liver-specific manner which can be suppressed by administration of doxycycline. These mice develop HCC at 3 months of age with visually identifiable tumor nodules on the liver surface and the tumors display a diffuse trabecular growth pattern typical for HCC and express the HCC tumor marker alpha-fetoprotein (AFP). In addition, the mutation analysis in the tumor of TRE-MET mice has also identified activating mutations in the beta-catenin gene in approximately 95% of tumors. These features make the TRE-MET HCC mouse model suitable for evaluating LNP-mediated delivery of β-catenin siRNA and the resultant efficacy on tumor growth.
The effect of β-catenin containing LNPs in silencing β-catenin mRNA in both liver and tumor tissues was first evaluated in a pharmacodynamic (PD) study in TRE-MET mice bearing tumors. Different doses of LNPs or a high dose of LNPcontrol siRNA were intravenously administered and 72 hours later, necropsy was performed to collect liver and tumor tissues for the determination of β-catenin mRNA levels by Taqman. […] The KD in tumors ranges from 70% (2 mpk) to about 40% (0.1 or 0.05 mpk).

[3] = system: CTNNB1 mRNA; assay: Rhesus monkey in vivo evaluation of β-catenin efficacy (liver CTNNB1 mRNA); conditions: beta-catenin siRNA, doses ranging from 0.67-3.34 mg/m^2, intravenous bolus, FIG. 5
Method: On study day −7 predose liver biopsy samples (˜0.5-1 gram/sample) were collected from male rhesus monkeys by laparoscopic surgical resection (resection of one biopsy sample from outer edge of one randomly selected liver lobe per monkey). A 5 mm tissue punch was used to sample three non-adjacent ˜50 mg samples from each predose biopsy. Samples were preserved in RNAlater™ (Ambion) for later CTNNB1 mRNA analysis.
On study day 0 monkeys were administered suspensions of the lipid nanoparticle (LNP) test articles in phosphate buffered saline (0.05-0.1 mg siRNA/mL) via single-dose intravenous bolus injection at target doses of 0.67, 1.34 or 3.34 mg siRNA/m^2. […]
CTNNB1 mRNA levels were measured by relative quantitative RT-PCR using a primer/probe set validated for CTNNB1 and normalized against mRNA levels of peptidylprolyl isomerase B (also known as PPIB or cyclophilin B) and RNA levels of 18S ribosomal RNA (18S rRNA). Change in CTNNB1 mRNA liver expression was measured as the difference in PCR threshold cycle number (ΔΔCt) between post-dose samples and each corresponding monkey's predose liver samples.
Calculation of CTNNB1 mRNA knockdown (with respect to pretreatment levels) was calculated from ΔΔCt using the following relationship: mRNA (% knockdown)=100−(100/2^−ΔΔCt)

| SMILES | cationic lipid liver levels compared with RDV containing DLinKC2DMA (Compound 45) or MC3 (Compound 46) [1] | β-catenin mRNA KD in normal liver ([2]; 0.05 mpk) [%] | β-catenin mRNA KD in normal liver ([2]; 0.1 mpk) [%] | β-catenin mRNA KD in tumors ([2]; 0.1 or 0.05 mpk) | β-catenin mRNA KD in tumors ([2]; 0.25 mpk) [%] | knockdown of β-catenin mRNA in both liver and tumor tissues [2] | CTNNB1 mRNA knockdown in liver [3] | β-catenin mRNA KD in tumors ([2]; 2 mpk) [%] |
| --- | --- | --- | --- | --- | --- | --- | --- | --- |
| CCCCC/C=C\C/C=C\CCCCCCCCCC(CCCCCCCCC)CCN(C)C (centres unmarked) [Compound 32, (13Z,16Z)—N,N-dimethyl-3-nonyldocosa-13,16-dien-1-amine] | lower than | 78 | 76 | 20-30% | 47 | robust and dose-dependent knockdown | robust KD |  |
| CCCCCCCCCC(CCCCCCCC1CC1CCCCCCCC)N(C)C [Compound 33, N,N-dimethyl-1-[(1S,2R)-2-octylcyclopropyl]hepladecan-8-amine] | lower than | 69 | 88 | about 40% |  | robust and dose-dependent knockdown | robust KD | 70 |
